These results are taken from ChEMBL document CHEMBL5338818, “Discovery of the First Potent, Selective, and In Vivo Efficacious Polo-like Kinase 4 Proteolysis Targeting Chimera Degrader for the Treatment of TRIM37-Amplified Breast Cancer” (J Med Chem, 2023).

In series [1] the target is T1, Serine/threonine-protein kinase PLK4 (Homo sapiens, UniProt O00444).
T1 sequence (O00444 whole entry): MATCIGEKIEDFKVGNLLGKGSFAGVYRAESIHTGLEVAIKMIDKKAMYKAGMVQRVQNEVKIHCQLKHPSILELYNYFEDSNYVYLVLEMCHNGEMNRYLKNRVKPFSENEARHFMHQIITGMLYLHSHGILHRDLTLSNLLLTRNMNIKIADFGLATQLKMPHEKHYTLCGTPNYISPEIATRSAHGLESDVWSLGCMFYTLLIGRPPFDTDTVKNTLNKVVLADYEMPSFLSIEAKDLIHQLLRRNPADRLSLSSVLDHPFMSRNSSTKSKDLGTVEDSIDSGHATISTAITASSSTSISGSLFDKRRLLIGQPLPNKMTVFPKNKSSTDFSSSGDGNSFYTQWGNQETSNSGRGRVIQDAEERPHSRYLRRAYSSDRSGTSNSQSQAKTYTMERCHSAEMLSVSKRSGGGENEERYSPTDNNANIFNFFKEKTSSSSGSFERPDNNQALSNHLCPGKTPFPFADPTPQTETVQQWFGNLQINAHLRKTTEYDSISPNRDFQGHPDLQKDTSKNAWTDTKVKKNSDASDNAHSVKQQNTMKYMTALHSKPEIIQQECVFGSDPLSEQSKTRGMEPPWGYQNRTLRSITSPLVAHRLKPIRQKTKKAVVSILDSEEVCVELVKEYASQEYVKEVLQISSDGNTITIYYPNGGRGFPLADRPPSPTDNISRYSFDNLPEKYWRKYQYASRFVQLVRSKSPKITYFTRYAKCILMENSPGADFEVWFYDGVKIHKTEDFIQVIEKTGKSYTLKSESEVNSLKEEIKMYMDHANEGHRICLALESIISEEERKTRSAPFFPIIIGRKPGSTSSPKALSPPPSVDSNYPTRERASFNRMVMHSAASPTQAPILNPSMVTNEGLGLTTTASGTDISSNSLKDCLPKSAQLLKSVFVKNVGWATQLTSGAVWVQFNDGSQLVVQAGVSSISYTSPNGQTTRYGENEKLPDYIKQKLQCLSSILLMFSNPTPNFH
The experiment in a line: Inhibition of PLK4 (unknown origin) incubated for 1 hr in presence of kinase tracer 236 by FRET assay.

Series [2] has as its target T2, Serine/threonine-protein kinase PLK4 (Homo sapiens) (UniProt O00444).
T2 sequence (whole entry): T1 sequence (O00444 whole entry)
The experiment in a line: Inhibition of PLK4 in human MCF7 cells assessed as increase in SAS-6 degradation by Western blot analysis. It counts as cell-based. The note with it: dose 1-1000 nM. Background: Immunoblotting shows a protein as a band on a membrane.

Series [3] concerns MCF7. In words: Inhibition of human MCF7 cells migration incubated for 48 hrs by inverted microscopic analysis. It counts as functional, cell-based. The note with it: dose 0.1-1 µM.
Series [4] in a line: Metabolic stability in human liver microsomes assessed as half life at 100 uM incubated for 60 mins in presence of NADPH by LC-MS/MS analysis. It is filed as ADME, Microsome.
A short description of series [5]: Metabolic stability in rat liver microsomes assessed as half life at 100 uM incubated for 60 mins in presence of NADPH by LC-MS/MS analysis. It counts as ADME, Microsome. In general terms: Liver microsomes are a subcellular fraction often used to study metabolism.
Series [6] can be described thus: Metabolic stability in mouse liver microsomes assessed as compound remaining at 100 uM incubated for 60 mins by LC-MS/MS analysis. It is filed as ADME, Microsome. Conditions: read-out: Stability.
Series [7] concerns the target CYP2C19 (Homo sapiens, UniProt P33261). In words: Inhibition of CYP2C19 in human liver microsomes at 10 uM using (+)-3-benzylnirvanol as substrate preincubated for 10 mins followed by NADPH regenerating system addition and measured after 15 mins by LC-MS/MS analysis relative to control. It counts as ADME, Microsome. The note with it: probe (+)-3-benzylnirvanol (named as substrate in the text), time 25 min.

Series [8] in a line: Observed AUC infinity in ICR mouse at 20 mg/kg, ip measured upto 24 hrs by LC-M/MS analysis. It is filed as ADME, organism-based. The arrangement: dose 20 mg/kg, time < 24 hrs, route ip. Conditions: in vivo.
Series [9] is described as follows: Observed mean […] time infinity in ICR mouse at 20 mg/kg, ip measured upto 24 hrs by LC-M/MS analysis. It counts as ADME, organism-based. The note with it: in vivo.
A short description of series [10]: Apparent permeability across apical to basolateral side in human Caco-2 cells at 2 uM incubated for 2 hrs by LC-MS/MS analysis. It counts as ADME, cell-based. A general note: Caco-2 monolayers are a common model of the intestinal barrier.
Series [11] can be described thus: Toxicity in nu/nu mouse xenografted with human MCF7 cells assessed as effect on kidney at 20 mg/kg, ip administered once every other day for 21 days by HE staining based analysis. Conditions: in vivo, 504 h, time 21 day. It is filed as organism-based.

CYP2C19, sequence (P33261 whole entry): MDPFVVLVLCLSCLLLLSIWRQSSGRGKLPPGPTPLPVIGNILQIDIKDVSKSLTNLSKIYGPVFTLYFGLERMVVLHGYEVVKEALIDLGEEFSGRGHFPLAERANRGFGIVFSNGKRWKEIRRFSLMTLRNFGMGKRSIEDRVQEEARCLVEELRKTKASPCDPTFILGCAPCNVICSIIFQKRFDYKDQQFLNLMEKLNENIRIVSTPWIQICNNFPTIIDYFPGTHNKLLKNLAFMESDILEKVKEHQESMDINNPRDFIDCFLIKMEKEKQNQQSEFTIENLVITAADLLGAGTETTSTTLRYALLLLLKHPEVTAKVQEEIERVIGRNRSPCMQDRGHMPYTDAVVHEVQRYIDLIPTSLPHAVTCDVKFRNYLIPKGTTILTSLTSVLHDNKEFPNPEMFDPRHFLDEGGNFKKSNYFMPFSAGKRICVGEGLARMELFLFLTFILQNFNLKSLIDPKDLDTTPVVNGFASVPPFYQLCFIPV

Take `Cc1cc(Nc2nc(NCc3ccc(F)cc3F)nc3c2cnn3C2CCN(C(=O)C3CCN(c4ccc5c(c4)C(=O)N(C4CCC(=O)NC4=O)C5=O)CC3)CC2)n[nH]1` (stereo unspecified): the IC50 in series [1] worked out at 8.4 nM. In addition, the inhibition result in [2] and in series [3] was “Dose-Dependent Effect” each time. For the same compound, the figures for the half-life at 100 µM in [4] and in series [5] were 1.06 h and 1.11 h, respectively. The remaining at 1 h, 100 µM in series [6] is 80.7%. The compound also displayed an inhibition at 0.25 h, 10 µM in series [7] of 23.4%. This compound showed an AUC(0-inf) in series [8] of 14200 ng·h/mL. The compound also displayed a Time in [9] of 3.93 h. In addition, the Papp A→B at 2 h, 2 µM in series [10] stood at 0.48 ×10⁻⁶ cm/s. Besides, in series [11], the Activity entry is on record as “Non-Toxic”.

As a reminder, the IC50 is the concentration at which inhibition is half-maximal. What is called inhibition is the share of the control response that was lost under treatment. By half-life is commonly meant how long it takes for the measured level to halve. What is called AUC(0-inf) is total exposure, with the tail of the curve extrapolated. Low readings indicate low exposure, high ones high exposure. By Papp A→B is commonly meant the apparent permeability from the apical to the basolateral side of a cell layer.
